Measurements reported in ChEMBL document CHEMBL1201862, “PubChem BioAssay data set” (2004).
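Interpolation was linear, between the two tested concentrations surrounding the appropriate level; five concentrations were tested over 48 hours in 96-well plates. Here, GI50 denotes the concentration required for 50% inhibition of growth.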 Calls of active or inactive are those of the source. Rule as the data show it: active = GI50 up to about 1.1 µM and inactive = higher.

Tests used:
Experiment in all cases: growth of human tumour cells (NCI), 48 h
[1] = test system: SK-OV-3
[2] = test system: A549
[3] = test system: MDA-N
[4] = test system: NCI-H23
[5] = test system: SF-539
[6] = test system: U-251
[7] = test system: SNB-19
[8] = test system: CAKI-1
[9] = test system: SR
[10] = test system: SF-268
[11] = test system: ACHN
[12] = test system: OVCAR-4
[13] = test system: RXF 393
[14] = test system: CCRF-CEM
[15] = test system: SK-MEL-2
[16] = test system: MCF7
[17] = test system: KM12
[18] = test system: COLO 205
[19] = test system: UACC-62
[20] = test system: SK-MEL-28
[21] = test system: A498
[22] = test system: T47D
[23] = test system: 786-0
[24] = test system: MOLT-4
[25] = test system: RPMI-8226
[26] = test system: DU-145
[27] = test system: SF-295
[28] = test system: K562
[29] = test system: SNB-75
[30] = test system: IGROV-1
[31] = test system: Hs-578T
[32] = test system: M14
[33] = test system: MDA-MB-231
[34] = test system: TK-10
[35] = test system: UACC-257
[36] = test system: OVCAR-5
[37] = test system: Malme-3M
[38] = test system: HT-29
[39] = test system: NCI/ADR-RES
[40] = test system: NCI-H522
[41] = test system: PC-3
[42] = test system: UO-31
[43] = test system: HCT-15
[44] = test system: HL-60
[45] = test system: NCI-H226
[46] = test system: HCC 2998
[47] = test system: OVCAR-3
[48] = test system: EKVX
[49] = test system: NCI-H460
[50] = test system: HCT-116
[51] = test system: SK-MEL-5
[52] = test system: MDA-MB-435
[53] = test system: HOP-92
[54] = test system: LOX IMVI
[55] = test system: OVCAR-8
[56] = test system: SN12C
[57] = test system: HOP-62
[58] = test system: SW-620

O=[N+]([O-])C(/C=C(\Cl)[N+](=O)[O-])=C(N1CCOCC1)N1CCOCC1 was tested, and the GI50 [1] was > 100 µM (inactive), the GI50 [2] was 19.4 µM (inactive) and the GI50 [3] was > 100 µM (inactive). For the same molecule, the GI50 [4] was > 100 µM (inactive), the GI50 [5] was 22.3 µM (inactive) and the GI50 [6] was 24.6 µM (inactive). The GI50 [7] was > 100 µM (inactive), the GI50 [8] was 27.4 µM (inactive) and the GI50 [9] was 39.6 µM (inactive). The GI50 [10] was 35.5 µM (inactive), the GI50 [11] was 41.7 µM (inactive) and the GI50 [12] was 25.9 µM (inactive). For the same molecule, the GI50 [13] was 31.5 µM (inactive), the GI50 [14] was 56.9 µM (inactive) and the GI50 [15] was > 100 µM (inactive). For the same molecule, the GI50 [16] was 17.6 µM (inactive), the GI50 [17] was > 100 µM (inactive) and the GI50 [18] was 19.8 µM (inactive). For the same molecule, the GI50 [19] was 85.7 µM (inactive), the GI50 [20] was > 100 µM (inactive) and the GI50 [21] was 27 µM (inactive). The GI50 [22] was 24.5 µM (inactive), the GI50 [23] was 16.7 µM (inactive) and the GI50 [24] was 50.2 µM (inactive). For the same molecule, the GI50 [25] was 26.5 µM (inactive), the GI50 [26] was > 100 µM (inactive) and the GI50 [27] was > 100 µM (inactive). For the same molecule, the GI50 [28] was 18.3 µM (inactive), the GI50 [29] was 50.5 µM (inactive) and the GI50 [30] was > 100 µM (inactive). The GI50 [31] was 0.232 µM (active), the GI50 [32] was > 100 µM (inactive) and the GI50 [33] was 23.3 µM (inactive). The GI50 [34] was 47 µM (inactive), the GI50 [35] was > 100 µM (inactive) and the GI50 [36] was 21.2 µM (inactive). The GI50 [37] was 27.2 µM (inactive), the GI50 [38] was 33.4 µM (inactive) and the GI50 [39] was > 100 µM (inactive). The GI50 [40] was 41.8 µM (inactive), the GI50 [41] was > 100 µM (inactive) and the GI50 [42] was 36.6 µM (inactive). For the same molecule, the GI50 [43] was over 100 µM, the GI50 [44] was 18.4 µM (inactive) and the GI50 [45] was > 100 µM (inactive). The GI50 [46] was 24 µM (inactive), the GI50 [47] was 19.7 µM (inactive) and the GI50 [48] was > 100 µM (inactive). For the same molecule, the GI50 [49] was > 100 µM (inactive), the GI50 [50] was 25.3 µM (inactive) and the GI50 [51] was > 100 µM (inactive). For the same molecule, the GI50 [52] was > 100 µM (inactive), the GI50 [53] was 25.4 µM (inactive) and the GI50 [54] was 85.9 µM (inactive). The GI50 [55] was > 100 µM (inactive), the GI50 [56] was > 100 µM (inactive) and the GI50 [57] was 20.9 µM (inactive).
In the case of CSC(=S)N/N=C(\C)c1ccc(S(=O)(=O)N(C)c2ccccc2)cc1, the GI50 [1] is reported as 59.2 µM (inactive), the GI50 [2] is reported as 29.1 µM (inactive) and the GI50 [3] is reported as 30.3 µM (inactive). For the same molecule, the GI50 [4] was 19.1 µM (inactive), the GI50 [5] was 48.3 µM (inactive) and the GI50 [6] was 24.7 µM (inactive). The GI50 [7] was 26.4 µM (inactive), the GI50 [8] was 50.5 µM (inactive) and the GI50 [9] was 5.19 µM (inactive). For the same molecule, the GI50 [10] was 9.44 µM (inactive), the GI50 [11] was 22.6 µM (inactive) and the GI50 [12] was 25.6 µM (inactive). The GI50 [13] was 77.8 µM (inactive), the GI50 [15] was 35.3 µM (inactive) and the GI50 [16] was 18.2 µM (inactive). For the same molecule, the GI50 [17] was 21.9 µM (inactive), the GI50 [18] was 68.4 µM (inactive) and the GI50 [19] was 43.2 µM (inactive). The GI50 [20] was 34.8 µM (inactive), the GI50 [21] was 89.7 µM (inactive) and the GI50 [22] was 66.5 µM (inactive). The GI50 [23] was 34.4 µM (inactive), the GI50 [24] was 19 µM (inactive) and the GI50 [25] was 27.8 µM (inactive). The GI50 [26] was > 100 µM (inactive), the GI50 [27] was 12.8 µM (inactive) and the GI50 [28] was 13.9 µM (inactive). The GI50 [29] was 39.3 µM (inactive), the GI50 [30] was 3.5 µM (inactive) and the GI50 [31] was 15.5 µM (inactive). For the same molecule, the GI50 [32] was 25.5 µM (inactive), the GI50 [33] was 98.4 µM (inactive) and the GI50 [34] was > 100 µM (inactive). For the same molecule, the GI50 [35] was 33.7 µM (inactive), the GI50 [36] was > 100 µM (inactive) and the GI50 [37] was 2.07 µM (inactive). For the same molecule, the GI50 [38] was 26.1 µM (inactive), the GI50 [39] was 28.8 µM (inactive) and the GI50 [41] was 19.3 µM (inactive). For the same molecule, the GI50 [42] was 15.7 µM (inactive), the GI50 [43] was 34.2 µM and the GI50 [44] was 6.5 µM (inactive). The GI50 [58] was 41.9 µM (inactive), the GI50 [45] was 20.1 µM (inactive) and the GI50 [46] was > 100 µM (inactive). The GI50 [47] was 16.7 µM (inactive), the GI50 [48] was 21.8 µM (inactive) and the GI50 [49] was 5.13 µM (inactive). For the same molecule, the GI50 [50] was 14.3 µM (inactive), the GI50 [52] was 22.9 µM (inactive) and the GI50 [53] was 23.8 µM (inactive). The GI50 [54] was 18.3 µM (inactive), the GI50 [55] was 31.6 µM (inactive) and the GI50 [56] was > 100 µM (inactive). For the same molecule, the GI50 [57] was 56.5 µM (inactive).
